These results are taken from BindingDB's records for doi:10.1021/jm8003625 (Abbott Laboratories, 2008).

The target of experiment [1] is Histamine H3 receptor (Rattus norvegicus, UniProt Q9QYN8). The experiment is described as follows: Radioligand Binding Assay. On the procedure:
(§1) Competition radioligand binding assays were performed with increasing concentrations of test compound in the presence of [3H]ligand. All binding reactions were terminated by filtration. Bound radiolabel was determined by liquid scintillation counting. For all of the radioligand competition binding assays, IC50 values and Hill slopes were determined by Hill transformation of the data and Ki values were determined by the Cheng-Prusoff equation.

In experiment [2] the target is Histamine H3 receptor (Homo sapiens, UniProt Q9Y5N1). The experiment is described as follows: Radioligand Binding Assay. To be noted: pH 7.4; 25 °C. As to the method:
as §1

Sequence of Histamine H3 receptor (Rattus norvegicus, UniProt Q9QYN8) (Q9QYN8 whole entry): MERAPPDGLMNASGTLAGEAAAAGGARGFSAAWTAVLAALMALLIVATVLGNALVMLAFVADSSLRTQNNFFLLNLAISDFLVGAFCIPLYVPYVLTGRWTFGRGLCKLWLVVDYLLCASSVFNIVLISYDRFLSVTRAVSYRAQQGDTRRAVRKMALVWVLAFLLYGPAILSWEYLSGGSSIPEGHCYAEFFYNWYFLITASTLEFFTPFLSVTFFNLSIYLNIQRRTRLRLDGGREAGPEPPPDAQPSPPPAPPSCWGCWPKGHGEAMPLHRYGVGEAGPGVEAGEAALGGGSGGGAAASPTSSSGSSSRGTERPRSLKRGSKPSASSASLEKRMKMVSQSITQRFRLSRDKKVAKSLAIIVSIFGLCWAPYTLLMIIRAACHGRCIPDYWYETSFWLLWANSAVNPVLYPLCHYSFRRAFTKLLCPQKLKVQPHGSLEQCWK
Sequence of Histamine H3 receptor (Homo sapiens, UniProt Q9Y5N1) (Q9Y5N1 whole entry): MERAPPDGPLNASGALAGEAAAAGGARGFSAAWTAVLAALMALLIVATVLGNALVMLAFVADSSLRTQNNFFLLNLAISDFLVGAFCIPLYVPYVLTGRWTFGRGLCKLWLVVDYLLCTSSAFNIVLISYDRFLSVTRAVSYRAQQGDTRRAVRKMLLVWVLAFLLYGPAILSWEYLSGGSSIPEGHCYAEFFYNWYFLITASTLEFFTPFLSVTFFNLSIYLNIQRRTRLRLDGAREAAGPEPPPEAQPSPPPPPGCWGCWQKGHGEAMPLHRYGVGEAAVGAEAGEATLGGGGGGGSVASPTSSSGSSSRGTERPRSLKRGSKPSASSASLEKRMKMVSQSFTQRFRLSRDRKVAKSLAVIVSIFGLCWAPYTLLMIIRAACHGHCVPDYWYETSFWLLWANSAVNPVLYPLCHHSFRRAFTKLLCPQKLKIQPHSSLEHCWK

For `CN[C@H]1CC[C@@]2(C)C(=CC[C@H]3[C@@H]4CC[C@@H]5[C@H](C)N(C)C[C@@]54CC[C@@H]32)C1` [(1R,2S,5S,6S,9R,12S,13R,16S)-N,6,7,13-tetramethyl-7-azapentacyclo[10.8.0.0^{2,9}.0^{5,9}.0^{13,18}]icos-18-en-16-amine], the results for the Ki at Histamine H3 receptor [1] and at Histamine H3 receptor [2] were 302 nM and 38 nM, respectively.
